Reference: patent EP2450062A1, “HYDROCOLLOID PLASTERS, INCLUDING VIABLE PROBIOTIC STRAINS OF LACTOBACILLUS SPP. AND USED FOR VARIOUS TYPES OF WOUNDS, INFECTED TISSUES, DRY WOUNDS AND DEEP WOUNDS” (Universidad De Concepcion, priority 2009, dated 2011)

Tested on: Lactobacillus acidophilus LPV 31
Test: bactericidal effect of glutaraldehyde in the films (bacterial counts)
Details: GA concentrations studied, in gelatin films
Source text: The cross-linking agent used is preferably, but not exclusively, glutaraldehyde (GA), due to its high efficiency stabilising collagen derivatives, its high reaction rate, and its ability to modify the physico-chemical properties of gelatin-based gels.

O=CCCCC=O [GA, glutaraldehyde]
bactericidal effect: do not have an observable bactericidal effect
